Results on 70 compounds are retold here after patent US7262212B2, “2,3-dihydro-6-nitroimidazo[2,1-b]oxazoles” (Otsuka Pharmaceutical Co., Ltd., priority 2002, dated 2007).

As for `CC(C)NC(=O)N1CCN(CC2(C)Cn3cc([N+](=O)[O-])nc3O2)CC1` (stereo not shown), the melting point fell in the range of 175 to 176.3 °C.

With `O=C(CN1CCC2(CC1)Cn1cc([N+](=O)[O-])nc1O2)N1CCN(Cc2ccc(C(F)(F)F)cc2)CC1`, the melting point was 195 to 197 °C (dec.).

`CC1(CN2CCN(CCCn3c(=O)oc4ccccc43)CC2)Cn2cc([N+](=O)[O-])nc2O1` (stereo not shown) displayed a melting point of 123 to 126 °C.

As for `CC1(CN2CCN(c3ccc(C(F)(F)F)cc3)CC2)Cn2cc([N+](=O)[O-])nc2O1` (stereo not shown), the melting point lay in the range of 159 to 160 °C.

`C[C@]1(COC(=O)N2CCC(Oc3ccc(C(F)(F)F)cc3)CC2)Cn2cc([N+](=O)[O-])nc2O1` returned a melting point of 165 to 166 °C.

With `CC1(COC(=O)N2CC=C(c3ccc(C(F)(F)F)cc3)CC2)Cn2cc([N+](=O)[O-])nc2O1` (stereo not shown), the melting point lay within 113 to 115 °C.

With `CC1(CSc2nc3ccccc3o2)Cn2cc([N+](=O)[O-])nc2O1` (stereo not shown), the melting point lay within 163 to 166 °C.

In the case of `O=C(CN1CCN(C(=O)OCc2ccc(OC(F)(F)F)cc2)CC1)N1CCC2(CC1)Cn1cc([N+](=O)[O-])nc1O2`, the melting point fell in the range of 137 to 139 °C.

For the compound `O=C(OCc1ccc(C(F)(F)F)cc1)N1CCC2(CC1)Cn1cc([N+](=O)[O-])nc1O2`, the melting point is 189 to 190 °C.

For `Cc1ccc(CC(=O)N2CCN(CC3(C)Cn4cc([N+](=O)[O-])nc4O3)CC2)cc1` (stereo not shown), the melting point lay in the range of 213 to 214 °C.

Consider `O=C(OCc1ccc(C(F)(F)F)cc1)N1CCN(CC2Cn3cc([N+](=O)[O-])nc3O2)CC1` (stereo not shown), for which the melting point lay within 120 to 122 °C.

For the compound `CC1(CN2CCN(C(=O)Nc3ccc(Cl)c(Cl)c3)CC2)Cn2cc([N+](=O)[O-])nc2O1` (stereo not shown), the melting point is 212 to 214 °C (dec.).

The compound `Cc1ccc(C(=O)N2CCN(CC3(C)Cn4cc([N+](=O)[O-])nc4O3)CC2)cc1` (stereo not shown) had a melting point of 121 to 122 °C.

Regarding `CC(C)(C)OC(=O)N1CCN(c2ccc(OCC3(C)Cn4cc([N+](=O)[O-])nc4O3)cc2)CC1` (stereo not shown), the melting point is 212 to 214.5 °C.

`COc1ccc(C(=O)N2CCN(CC3(C)Cn4cc([N+](=O)[O-])nc4O3)CC2)cc1` (stereo not shown): the melting point lay within 135 to 137 °C.

With `C[C@]1(CN2CCN(C(=O)OCC(F)(F)F)CC2)Cn2cc([N+](=O)[O-])nc2O1`, the melting point lay in the range of 123.5 to 124 °C.

Turning to `C[C@]1(CN2CCN(S(=O)(=O)Cc3ccc(Cl)cc3)CC2)Cn2cc([N+](=O)[O-])nc2O1`, the melting point lay within 204 to 206 °C.

In turn, `CC1(CNC(=O)OCc2ccc(F)cc2)Cn2cc([N+](=O)[O-])nc2O1` (stereo not shown) displayed a melting point of 200.4 to 202.1 °C.

With `CNC(C1CCN(c2ccc(C(F)(F)F)cc2)CC1)[C@]1(C)Cn2cc([N+](=O)[O-])nc2O1` (stereo partly shown), the melting point was 131.5 to 133.6 °C.

Regarding `CNC(C1CCN(c2ccc(C#N)cc2)CC1)[C@]1(C)Cn2cc([N+](=O)[O-])nc2O1` (stereo partly shown), the melting point lay within 149 to 152 °C.

Compound `CN(CCN1CCN(Cc2ccc(C(F)(F)F)cc2)CC1)C[C@@]1(C)Cn2cc([N+](=O)[O-])nc2O1` came in with a melting point of 102 to 104.5 °C.

Turning to `O=C(NCC1Cn2cc([N+](=O)[O-])nc2O1)OCc1ccc(F)cc1` (stereo not shown), the melting point was in the range of 164.6 to 165.1 °C.

For the compound `CC1(CN2CCN(Cc3ccccc3)C2=O)Cn2cc([N+](=O)[O-])nc2O1` (stereo not shown), the melting point was in the range of 180.2 to 180.9 °C.

For the compound `CC1(COCc2ccc(Oc3ccc(OC(F)(F)F)cc3)cc2)Cn2cc([N+](=O)[O-])nc2O1` (stereo not shown), the melting point lay within 107.9 to 109.3 °C.

Turning to `CC1(CN2CCN(c3ccc(-c4ccccc4)cc3)CC2)Cn2cc([N+](=O)[O-])nc2O1` (stereo not shown), the melting point was 223 to 227.8 °C.

On to `C[C@]1(COc2ccc(N3CCSCC3)cc2)Cn2cc([N+](=O)[O-])nc2O1`, for which the melting point lay in the range of 227.5 to 229 °C.

`O=C(CN1CCN(CC(=O)N2CCC3(CC2)Cn2cc([N+](=O)[O-])nc2O3)CC1)Nc1ccc(C(F)(F)F)cc1` displayed a melting point of 133 to 135 °C.

For the compound `O=[N+]([O-])c1cn2c(n1)OC(COc1ccc(N3CCC(Oc4ccc(OC(F)(F)F)cc4)CC3)cc1)C2` (stereo not shown), the melting point lay in the range of 173.2 to 177.3 °C.

`O=[N+]([O-])c1cn2c(n1)OC1(CCN(c3ccc(C(F)(F)F)cc3)CC1)C2` showed a melting point of 249.2 to 250.1 °C.

On to `C[C@]1(COc2cccc(N3CCN(C(=O)OCc4ccc(OC(F)(F)F)cc4)CC3)c2)Cn2cc([N+](=O)[O-])nc2O1`, for which the melting point fell in the range of 136.5 to 138 °C.

Turning to `C[C@]1(CN2CCc3ccccc3C2)Cn2cc([N+](=O)[O-])nc2O1`, the melting point lay within 153 to 155.3 °C.

As for `C[C@]1(CN2CCC(N3CCCCC3)CC2)Cn2cc([N+](=O)[O-])nc2O1`, the melting point fell in the range of 163.4 to 164.9 °C.

In the case of `C[C@]1(CN2CCN(C3CCN(C(=O)c4ccc(OC(F)(F)F)cc4)CC3)CC2)Cn2cc([N+](=O)[O-])nc2O1`, the melting point was 133 to 134 °C.

`CC(C)n1c(=O)n(CC2(C)Cn3cc([N+](=O)[O-])nc3O2)c2cc(Cl)ccc21` (stereo not shown): the melting point is 240.5 to 244.8 °C.

`C[C@]1(CN2CCN(c3nc(-c4ccccc4)cc(-c4ccccc4)n3)CC2)Cn2cc([N+](=O)[O-])nc2O1` gave a melting point of 201.2 to 205.4 °C.

For `O=C(N1CCN(Cc2ccc(C(F)(F)F)cc2)CC1)N1CCC2(CC1)Cn1cc([N+](=O)[O-])nc1O2`, the melting point was 226 to 230 °C (dec.).

The compound `C[C@@]1(CN2CCN(C(=O)OCc3ccc(F)cc3)CC2)Cn2cc([N+](=O)[O-])nc2O1` gave a melting point of 167 to 169 °C.

Take `C[C@]1(CN2CCC(NC(=O)OCc3ccc(OC(F)(F)F)cc3)CC2)Cn2cc([N+](=O)[O-])nc2O1`: the melting point fell in the range of 156.2 to 158.5 °C.

Take `CC(C)(C)OC(=O)N1CCC2(CC1)Cn1cc([N+](=O)[O-])nc1O2`: the melting point is 230 to 232 °C.

`CNC(C1CCN(C(=O)OCc2ccc(OC(F)(F)F)cc2)CC1)[C@]1(C)Cn2cc([N+](=O)[O-])nc2O1` (stereo partly shown): the melting point lay within 84.2 to 86.8 °C.

The compound `CN(C(=O)OC[C@@]1(C)Cn2cc([N+](=O)[O-])nc2O1)c1ccc(Cl)cc1` showed a melting point of 131 to 133 °C.

With `CC(C)(C)OC(=O)c1ccc(NC(=O)N2CCC3(CC2)Cn2cc([N+](=O)[O-])nc2O3)cc1`, the melting point is above 300 °C.

In turn, `C[C@]1(COc2ccc(N3CCN(C(=O)c4ccc(OC(F)(F)F)cc4)CC3)cc2)Cn2cc([N+](=O)[O-])nc2O1` displayed a melting point of 201.5 to 203.2 °C.

Take `Cc1ccc(NC(=O)N2CCN(C[C@@]3(C)Cn4cc([N+](=O)[O-])nc4O3)CC2)cc1`: the melting point is 207 to 210 °C (dec.).

Compound `C[C@]1(CN2CCC(OCCc3ccc(C(F)(F)F)cc3)CC2)Cn2cc([N+](=O)[O-])nc2O1` returned a melting point of 84.6 to 86.8 °C.

Regarding `CC1(CNC(=O)OCc2ccccc2)Cn2cc([N+](=O)[O-])nc2O1` (stereo not shown), the melting point is 171.3 to 172.2 °C.

Consider `O=[N+]([O-])c1cn2c(n1)O[C@@H](COc1ccc(N3CCC(Oc4ccc(OC(F)(F)F)cc4)CC3)cc1)C2`, for which the melting point fell in the range of 157 to 160 °C.

In the case of `CN(C(=O)OC[C@@]1(C)Cn2cc([N+](=O)[O-])nc2O1)c1ccc(OC(F)(F)F)cc1`, the melting point was in the range of 144 to 145 °C.

`CC1(CN2CCN(C(=O)CCc3ccccc3)CC2)Cn2cc([N+](=O)[O-])nc2O1` (stereo not shown) gave a melting point of 166.8 to 169.1 °C.

With `CCCCCCCCOC(=O)N1CCN(CC2(C)Cn3cc([N+](=O)[O-])nc3O2)CC1` (stereo not shown), the melting point was 138 to 139.4 °C.

In the case of `Cn1c(=O)n(CC2(C)Cn3cc([N+](=O)[O-])nc3O2)c2cc(Cl)ccc21` (stereo not shown), the melting point was 261.9 to 265.4 °C (dec.).

Regarding `CCCCCC(C=NN1CCN(CC2(C)Cn3cc([N+](=O)[O-])nc3O2)CC1)=Cc1ccccc1` (stereo not shown), the melting point fell in the range of 166.6 to 169.6 °C.

In the case of `Cn1c(=O)n(CC2(C)Cn3cc([N+](=O)[O-])nc3O2)c2ccc(Cl)cc21` (stereo not shown), the melting point was 261.3 to 263.3 °C.

As for `CC1(CN2CCN(C(=O)c3ccc(-c4ccccc4)cc3)CC2)Cn2cc([N+](=O)[O-])nc2O1` (stereo not shown), the melting point was 116 to 118 °C.

For the compound `C[C@]1(CN2CCN(S(=O)(=O)c3ccc(Cl)cc3)CC2)Cn2cc([N+](=O)[O-])nc2O1`, the melting point lay in the range of 216 to 218 °C.

The compound `C[C@]1(COc2ccc(C3=CCN(Cc4ccc(OC(F)(F)F)cc4)CC3)cc2)Cn2cc([N+](=O)[O-])nc2O1` returned a melting point of 168 to 174 °C.

`CNC(C1CCN(c2ccc(Cl)cc2)CC1)[C@]1(C)Cn2cc([N+](=O)[O-])nc2O1` (stereo partly shown) yielded a melting point of 179.2 to 182.1 °C.

For the compound `CC1(CN2CCN(C(=S)Nc3ccccc3)CC2)Cn2cc([N+](=O)[O-])nc2O1` (stereo not shown), the melting point is 164 to 165 °C (dec.).

As to `COc1ccc(CN(C)C[C@@]2(C)Cn3cc([N+](=O)[O-])nc3O2)cc1`, the melting point is 144 to 147 °C.

`C[C@]1(CN2CCN(C(=O)OCC=Cc3c(F)cc(F)cc3F)CC2)Cn2cc([N+](=O)[O-])nc2O1.O=C(O)/C=C\C(=O)O` had a melting point of 158 to 159 °C.

`CC(C)(C)OC(=O)N(CCc1ccc(C(F)(F)F)cc1)C1CCN(C[C@@]2(C)Cn3cc([N+](=O)[O-])nc3O2)CC1` yielded a melting point of 206.8 to 208.6 °C.

Turning to `CC1(CN2CCN(Cc3ccc(Br)cc3)C2=O)Cn2cc([N+](=O)[O-])nc2O1` (stereo not shown), the melting point is 205.7 to 208.1 °C.

Consider `C[C@]1(CN2CCN(C(=O)OCc3ccc(OC(F)(F)F)cc3)CC2)Cn2cc([N+](=O)[O-])nc2O1`, for which the melting point was 139.5 to 140.5 °C.

On to `C[C@]1(CN2CCN(C3CCN(Cc4ccc(Cl)cc4)CC3)CC2)Cn2cc([N+](=O)[O-])nc2O1`, for which the melting point lay in the range of 168 to 169 °C.

`CC1(CN2CCC(OCc3ccc(Cl)cc3)CC2)Cn2cc([N+](=O)[O-])nc2O1` (stereo not shown): the melting point was 129 to 130 °C.

The compound `Cn1c(=O)n(CC2(C)Cn3cc([N+](=O)[O-])nc3O2)c2cc(C(F)(F)F)ccc21` (stereo not shown) showed a melting point of 232.4 to 234.7 °C.

As to `Cc1ccc(NC(=O)N2CCC3(CC2)Cn2cc([N+](=O)[O-])nc2O3)cc1`, the melting point was above 300 °C.

For the compound `CC(=NN1CCN(C[C@@]2(C)Cn3cc([N+](=O)[O-])nc3O2)CC1)c1ccc(Cl)cc1`, the melting point lay within 164.6 to 166.5 °C.

`C[C@]1(CN2CCC(NC(=O)OC3CCN(c4ccc(C(F)(F)F)cc4)CC3)CC2)Cn2cc([N+](=O)[O-])nc2O1` returned a melting point of 134.4 to 136.9 °C.

`C[C@]1(CN2CCN(c3ccc(C(=O)O)cc3)CC2)Cn2cc([N+](=O)[O-])nc2O1`: the melting point was in the range of 248 to 252 °C.

A word on the melting point: it is the temperature of the solid-liquid transition.
